Values of other authors as cited in PMC9179904 (Cancers, 2022).

Key:
[1] = set-up: method as in PMID 7938477, PMID 9935073
[2] = tested on: PC-3 PIP and LNCaP tumors; set-up: method as in PMID 34402925

| Compound | Internalized alpha particles needed to decrease survival to 37–50% [1] | Tumor uptake, PC-3 PIP higher than LNCaP tumors [2] |
| --- | --- | --- |
| ^213Bi-CHX-A-DTPA-HuM195m | 1 |  |
| S=C([S-])N1CCCC1.S=C([S-])N1CCCC1.[Pb+2] [^212Pb(PDC)2] | 11 |  |
| O=C([O-])CN1CCN(CC(=O)[O-])CCN(CC(=O)NCC2CCC(C(=O)N[C@@H](Cc3ccc4ccccc4c3)C(=O)NCCCC[C@H](NC(=O)N[C@@H](CCC(=O)O)C(=O)O)C(=O)O)CC2)CCN(CC(=O)[O-])CC1.[177Lu+3] (stereo partly drawn) [^177Lu-PSMA-617] |  | 6–10 fold |
